Measurements from ChEMBL document CHEMBL5247641, “Discovery of Potent DYRK2 Inhibitors with High Selectivity, Great Solubility, and Excellent Safety Properties for the Treatment of Prostate Cancer” (J Med Chem, 2023).
Calls of active or inactive are those of the source. The rule behind the calls is not given here.

What was measured:
DU-145 [1] = test: Induction of cell cycle arrest in human DU-145 cells assessed as accumulation of cells at G2 phase at 4 uM incubated for 24 hrs by propidium iodide based flow cytometric analysis (Rvb= 17.52%); type: functional
[2] = Acute toxicity in ICR mouse assessed as change in liver weight at 1000 to 10000 mg/kg,po and measured after 14 days; type: organism-based; conditions: in vivo, 336 h, dose 1000-10000 mg/kg, time 14 day
DU-145 [3] = test: Antiproliferative activity against human DU-145 cells assessed as reduction in c-Myc expression level at 2 to 8 uM incubated for 24 hrs by Western blot analysis; type: functional, cell-based; conditions: dose 2-8 µM
DU-145 [4] = test: Induction of cell cycle arrest in human DU-145 cells assessed as accumulation of cells at G2 phase at 2 uM incubated for 24 hrs by propidium iodide based flow cytometric analysis (Rvb= 17.52%); type: functional
DU-145 [5] = test: Induction of cell cycle arrest in human DU-145 cells assessed as accumulation of cells at S phase at 1 uM incubated for 24 hrs by propidium iodide based flow cytometric analysis (Rvb= 29.02%); type: functional
[6] = Metabolic stability in human liver microsomes assessed as intrinsic clearance in presence of NADPH incubated up to 60 mins by LC-MS/MS analysis; type: ADME, Microsome; conditions: read-out: CLH
[7] = Thermodynamic water solubility of compound by HPLC anlaysis; type: physicochemical; conditions: read-out: Therm_solubility
DU-145 [8] = test: Antitumor activity against human DU-145 xenografted in BALB/c nude mouse as inhibition of tumor cell proliferation at 100 to 200 mg/kg,po administrated once daily for 21 days by Ki67 staining based microscopic analysis; type: functional, organism-based; conditions: dose 100-200 mg/kg, time 21.0 day
DU-145 [9] = test: Antiproliferative activity against human DU-145 cells assessed as increase in p27 expression level at 2 to 8 uM incubated for 24 hrs by Western blot analysis; type: functional, cell-based; conditions: dose 2-8 µM
CWR22R [10] = test: Induction of cell cycle arrest in human 22Rv1 cells assessed as accumulation of cells at G2 phase at 2 uM incubated for 24 hrs by propidium iodide based flow cytometric analysis (Rvb=24.21 %); type: functional
CWR22R [11] = test: Induction of apoptosis in human 22Rv1 cells assessed as increase in cleaved PARP level at 2 to 8 uM incubated for 24 hrs by Western blot analysis; type: functional, cell-based; conditions: dose 2-8 µM
[12] = Acute toxicity in ICR mouse assessed as appearance of lesions in lung at 5000 to 10000 mg/kg,po and measured after 14 days by H and E staining based microscopic analysis; type: organism-based; conditions: in vivo, 336 h, dose 5000-10000 mg/kg, time 14 day
CWR22R [13] = test: Induction of cell cycle arrest in human 22Rv1 cells assessed as accumulation of cells at G1 phase at 4 uM incubated for 24 hrs by propidium iodide based flow cytometric analysis (Rvb= 55.28%); type: functional
DU-145 [14] = test: Induction of cell cycle arrest in human DU-145 cells assessed as accumulation of cells at G2 phase at 1 uM incubated for 24 hrs by propidium iodide based flow cytometric analysis (Rvb= 17.52%); type: functional
DU-145 [15] = test: Induction of apoptosis in human DU-145 cells assessed as increase in cleaved PARP level at 2 to 8 uM incubated for 24 hrs by Western blot analysis; type: functional, cell-based; conditions: dose 2-8 µM
DU-145 [16] = test: Antitumor activity against human DU-145 xenografted in BALB/c nude mouse as upregulation of E-cadherin level in tumor at 100 to 200 mg/kg,po administrated once daily for 21 days by Western blot analysis; type: functional, organism-based; conditions: dose 100-200 mg/kg, time 21.0 day
DU-145 [17] = test: Antimigratory activity against human DU-145 cells assessed as inhibition of cell migration at 1 to 8 uM incubated for 24 hrs by transwell migration assay; type: functional, cell-based; conditions: dose 1-8 µM
[18] = Acute toxicity in ICR mouse assessed as change in heart weight at 1000 to 10000 mg/kg,po and measured after 14 days; type: organism-based; conditions: in vivo, 336 h, dose 1000-10000 mg/kg, time 14 day
DU-145 [19] = test: Antiproliferative activity against human DU-145 cells assessed as inhibition of clone formation at 1 to 8 uM incubated for 2 weeks by crystal violet staining based assay; type: functional, cell-based; conditions: dose 1-8 µM
[20] = Acute toxicity in ICR mouse assessed as appearance of lesions in spleen at 5000 to 10000 mg/kg,po and measured after 14 days by H and E staining based microscopic analysis; type: organism-based; conditions: in vivo, 336 h, dose 5000-10000 mg/kg, time 14 day
[21] = Toxicity in BALB/c nude mouse xenografted with human DU-145 assessed as body weight change at 100 to 200 mg/kg,po qd administrated once daily for 21 days; type: organism-based; conditions: in vivo, 504 h, dose 100-200 mg/kg, time 21 day
DU-145 [22] = test: Antitumor activity against human DU-145 xenografted in BALB/c nude mouse assessed as tumor growth inhibition at 200 mg/kg,po administrated once daily for 21 days; type: functional, organism-based; conditions: time 21.0 day
[23] = Acute toxicity in ICR mouse assessed as appearance of lesions in kidney at 5000 to 10000 mg/kg,po and measured after 14 days by H and E staining based microscopic analysis; type: organism-based; conditions: in vivo, 336 h, dose 5000-10000 mg/kg, time 14 day
DU-145 [24] = test: Induction of apoptosis in human DU-145 cells assessed as apoptotis rate at 8 uM incubated for 24 hrs by Annexin V-FITC and PI staining based flow cytometry (Rvb= 4.36%); type: functional
CWR22R [25] = test: Antimigratory activity against human 22Rv1 cells assessed as upregulation of E-cadherin expression level at 2 to 8 uM incubated for 24 hrs by Western blot analysis; type: functional, cell-based; conditions: dose 2-8 µM
[26] = Acute toxicity in ICR mouse assessed as change in spleen weight at 1000 to 10000 mg/kg,po and measured after 14 days; type: organism-based; conditions: in vivo, 336 h, dose 1000-10000 mg/kg, time 14 day
CWR22R [27] = test: Antiproliferative activity against human 22Rv1 cells assessed as inhibition of clone formation at 1 to 8 uM incubated for 2 weeks by crystal violet staining based assay; type: functional, cell-based; conditions: dose 1-8 µM
CWR22R [28] = test: Induction of apoptosis in human 22Rv1 cells assessed as apoptotis rate at 8 uM incubated for 24 hrs by Annexin V-FITC and PI staining based flow cytometry (Rvb= 3.08%); type: functional
CWR22R [29] = test: Induction of apoptosis in human 22Rv1 cells assessed as apoptotis rate at 2 uM incubated for 24 hrs by Annexin V-FITC and PI staining based flow cytometry (Rvb= 3.08%); type: functional
CWR22R [30] = test: Induction of cell cycle arrest in human 22Rv1 cells assessed as accumulation of cells at S phase at 2 uM incubated for 24 hrs by propidium iodide based flow cytometric analysis (Rvb=20.51 %); type: functional

Cl.O=C(c1ccc(Nc2ncc(F)c(-c3ccc4scnc4c3)n2)nc1)N1CCNCC1
Activity (DU-145 [1]): 12.12% | Activity [2]: Non-Toxic | Activity (DU-145 [3]): Active | Activity (DU-145 [4]): 12.78% | Activity (DU-145 [5]): 28.05% | CLint scaled [6]: 16 mL/min/kg | solubility thermodynamic [7]: 29.5 mg/mL | Activity (DU-145 [8]): Active | Activity (DU-145 [9]): Active | Activity (CWR22R [10]): 22.88% | Activity (CWR22R [11]): Active | Activity [12]: Non-Toxic | Activity (CWR22R [13]): 66.73% | Activity (DU-145 [14]): 17.18% | Activity (DU-145 [15]): Active | Activity (DU-145 [16]): Active | Activity (DU-145 [17]): Active | Activity [18]: Non-Toxic | Activity (DU-145 [19]): Active | Activity [20]: Non-Toxic | Activity [21]: Non-Toxic | Activity (DU-145 [22]): Active | Activity [23]: Non-Toxic | Activity (DU-145 [24]): 11.98% | Activity (CWR22R [25]): Active | Activity [26]: Non-Toxic | Activity (CWR22R [27]): Active | Activity (CWR22R [28]): 24.04% | Activity (CWR22R [29]): 11.25% | Activity (CWR22R [30]): 14.24%
